Laboratory results taken from ChEMBL document CHEMBL6109156, “Discovery of Dual PD-L1/HDAC3 Inhibitors for Tumor Immunotherapy” (J Med Chem, 2025).
Calls of active or inactive are those of the source. No cut-off for these calls is given here.

Assays:
Histone deacetylase 3 = Histone deacetylase 3 (Homo sapiens, UniProt O15379); assay: Inhibition of human recombinant HDAC3 using Ac-Leu-Gly-Lys (Ac)-AMC as substrate at 0.1 uM preincubated for 10 mins followed by substrate addition and measured after 45 mins by TECAN microtiter plate reader analysis relative to control; details: time 55.0 min
B16-F10 [1] = assay: Induction of cell cycle arrest in mouse B16-F10 cells assessed as accumulation of cells at S phase at 1 uM incubated for 48 hrs by PI staining based flow cytometry analysis (reference value: 24.04%); assay type: functional
B16-F10 [2] = assay: Induction of apoptosis in mouse B16-F10 cells assessed as early apoptotic cells at 10 uM incubated for 48 hrs by Annexin V-FITC/PI staining based flow cytometry analysis (reference value: 0.45 %); assay type: functional
B16-F10 [3] = assay: Induction of apoptosis in mouse B16-F10 cells assessed as early apoptotic cells at 4 uM incubated for 48 hrs by Annexin V-FITC/PI staining based flow cytometry analysis (reference value: 0.45 %); assay type: functional
B16-F10 [4] = assay: Antiproliferative activity against mouse B16-F10 cells assessed as cell growth inhibition incubated for 48 hrs by MTT assay; assay type: functional, cell-based; details: B16-F10, 48 h
MDA-MB-231 = assay: Antiproliferative activity against human MDA-MB-231 cells assessed as cell growth inhibition incubated for 48 hrs by MTT assay; assay type: functional, cell-based; details: MDA-MB-231, 48 h
[5] = Toxicity in C57BL/6J mouse implanted with mouse B16-F10 cells assessed as lung damage at 20 to 40 mg/kg, ip administered once daily for 9 days by H and E staining based analysis; assay type: organism-based; details: in vivo, 216 h, dose 20-40 mg/kg, time 9 day
B16-F10 [6] = assay: Immunomodulatory activity in mouse B16-F10 cells implanted in C57BL/6J mouse assessed as percentage of CD3 positive CD4 positive cells in tumor at 40 mg/kg, ip administered once daily for 9 days by flow cytometric analysis (reference value: 0.20 %); assay type: functional; details: time 9 day
Jurkat = assay: Antiproliferative activity against human Jurkat T cells assessed as cell viability incubated for 48 hrs by MTT assay; assay type: functional, cell-based
[7] = Toxicity in C57BL/6J mouse implanted with mouse B16-F10 cells assessed as kidney damage at 20 to 40 mg/kg, ip administered once daily for 9 days by H and E staining based analysis; assay type: organism-based; details: in vivo, 216 h, dose 20-40 mg/kg, time 9 day
B16-F10 [8] = assay: Induction of apoptosis in mouse B16-F10 cells assessed as necrotic cells at 8 uM incubated for 48 hrs by Annexin V-FITC/PI staining based flow cytometry analysis (reference value: 2.24%); assay type: functional
Histone deacetylase 8 = molecular target: T1, Histone deacetylase 8 (Homo sapiens, UniProt Q9BY41); assay: Inhibition of human recombinant HDAC8 using Ac-Leu-Gly-Lys (Tfa)-AMC as substrate preincubated for 10 mins followed by substrate addition and measured after 45 mins by TECAN microtiter plate reader analysis
T1 sequence (Q9BY41 whole entry): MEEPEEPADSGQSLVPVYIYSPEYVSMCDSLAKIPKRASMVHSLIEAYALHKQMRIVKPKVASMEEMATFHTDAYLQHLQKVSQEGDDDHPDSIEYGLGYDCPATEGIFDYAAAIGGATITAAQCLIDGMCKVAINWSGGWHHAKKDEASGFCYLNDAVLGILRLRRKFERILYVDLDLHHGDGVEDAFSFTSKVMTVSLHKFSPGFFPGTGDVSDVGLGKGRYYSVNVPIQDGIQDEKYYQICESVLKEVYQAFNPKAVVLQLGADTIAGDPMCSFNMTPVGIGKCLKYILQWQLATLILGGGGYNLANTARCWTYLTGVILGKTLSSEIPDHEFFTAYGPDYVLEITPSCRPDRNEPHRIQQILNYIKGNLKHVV

B16-F10 [9] = assay: Immunomodulatory activity in mouse B16-F10 cells implanted in C57BL/6J mouse assessed as percentage of CD3 positive CD8 positive cells in tumor at 20 mg/kg, ip administered once daily for 9 days by flow cytometric analysis (reference value: 0.44 %); assay type: functional; details: time 9 day
[10] = Toxicity in C57BL/6J mouse implanted with mouse B16-F10 cells assessed as body weight loss at 20 to 40 mg/kg, ip administered once daily for 9 days; assay type: organism-based; details: in vivo, 216 h, dose 20-40 mg/kg, time 9 day
HepG2 = assay: Antiproliferative activity against human HepG2 cells assessed as cell growth inhibition incubated for 48 hrs by MTT assay; assay type: functional, cell-based; details: HepG2, 48 h
[11] = Toxicity in C57BL/6J mouse implanted with mouse B16-F10 cells assessed as spleen damage at 20 to 40 mg/kg, ip administered once daily for 9 days by H and E staining based analysis; assay type: organism-based; details: in vivo, 216 h, dose 20-40 mg/kg, time 9 day
A-375 = assay: Antiproliferative activity against human A-375 cells co-cultured with human Jurkat T cells incubated for 48 hrs by MTT assay; assay type: functional, cell-based; details: dose 0.0625-1 µM
[12] = molecular target: T2, Histone deacetylase 3 (Mus musculus) (UniProt O88895); assay: Inhibition of HDAC3 in mouse B16-F10 cells assessed as upregulation of Ac-H3 level at 3 uM incubated for 24 hrs by Western blotting analysis; assay type: cell-based
T2 sequence (whole entry): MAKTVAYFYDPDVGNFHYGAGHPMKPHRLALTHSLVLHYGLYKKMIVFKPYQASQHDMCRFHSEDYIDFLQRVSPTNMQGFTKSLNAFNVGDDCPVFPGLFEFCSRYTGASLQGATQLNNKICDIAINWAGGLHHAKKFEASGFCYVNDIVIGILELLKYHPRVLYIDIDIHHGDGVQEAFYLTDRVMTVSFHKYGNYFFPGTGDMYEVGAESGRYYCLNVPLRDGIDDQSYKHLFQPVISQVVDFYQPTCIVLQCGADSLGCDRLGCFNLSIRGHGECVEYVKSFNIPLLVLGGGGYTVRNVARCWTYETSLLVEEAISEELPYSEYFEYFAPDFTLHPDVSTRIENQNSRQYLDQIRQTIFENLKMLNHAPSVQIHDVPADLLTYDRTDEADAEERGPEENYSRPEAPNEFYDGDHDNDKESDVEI

B16-F10 [13] = assay: Induction of cell cycle arrest in mouse B16-F10 cells assessed as accumulation of cells at G2/M phase at 1 uM incubated for 48 hrs by PI staining based flow cytometry analysis (reference value: 5.87%); assay type: functional
B16-F10 [14] = assay: Induction of cell cycle arrest in mouse B16-F10 cells assessed as accumulation of cells at G2/M phase at 4 uM incubated for 48 hrs by PI staining based flow cytometry analysis (reference value: 5.87%); assay type: functional
B16-F10 [15] = assay: Induction of cell cycle arrest in mouse B16-F10 cells assessed as accumulation of cells at S phase at 4 uM incubated for 48 hrs by PI staining based flow cytometry analysis (reference value: 24.04%); assay type: functional
B16-F10 [16] = assay: Induction of apoptosis in mouse B16-F10 cells assessed as necrotic cells at 1 uM incubated for 48 hrs by Annexin V-FITC/PI staining based flow cytometry analysis (reference value: 2.24%); assay type: functional
B16-F10 [17] = assay: Induction of apoptosis in mouse B16-F10 cells assessed as necrotic cells at 10 uM incubated for 48 hrs by Annexin V-FITC/PI staining based flow cytometry analysis (reference value: 2.24%); assay type: functional
HCT-116 = assay: Antiproliferative activity against human HCT-116 cells assessed as cell growth inhibition incubated for 48 hrs by MTT assay; assay type: functional, cell-based; details: HCT-116, 48 h

Chain of Histone deacetylase 3 (O15379 whole entry): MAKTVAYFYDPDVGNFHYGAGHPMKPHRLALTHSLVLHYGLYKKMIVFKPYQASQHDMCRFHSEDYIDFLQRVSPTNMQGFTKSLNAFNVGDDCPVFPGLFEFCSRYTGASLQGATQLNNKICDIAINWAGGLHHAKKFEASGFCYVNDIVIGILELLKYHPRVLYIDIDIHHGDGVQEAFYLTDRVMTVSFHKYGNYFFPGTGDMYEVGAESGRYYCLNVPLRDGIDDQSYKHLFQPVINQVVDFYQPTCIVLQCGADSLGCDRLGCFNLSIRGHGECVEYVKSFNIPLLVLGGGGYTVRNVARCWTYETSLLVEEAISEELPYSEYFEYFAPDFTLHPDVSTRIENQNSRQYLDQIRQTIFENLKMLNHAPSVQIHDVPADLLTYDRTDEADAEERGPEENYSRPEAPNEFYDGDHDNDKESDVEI

inhibition (Histone deacetylase 3): 42%
IC50 (B16-F10 [4]): 2.33 µM
IC50 (MDA-MB-231): 3.01 µM
IC50 (Histone deacetylase 8): > 10 µM
IC50 (HepG2): 4 µM
inhibition [12]: Active
IC50 (HCT-116): 2.86 µM
Structure (SMILES): CCCNNC(=O)CCCNCc1ccc(-c2cccc(-c3ccccc3)c2C)nc1OC
Activity (B16-F10 [1]): 21.79%
Activity (B16-F10 [2]): 52.9%
Activity (B16-F10 [3]): 17.1%
Activity [5]: Non-toxic
Activity (B16-F10 [6]): 2.8%
Activity (Jurkat): Active
Activity [7]: Non-toxic
Activity (B16-F10 [8]): 2.21%
Activity (B16-F10 [9]): 4.31%
Activity [10]: Non-toxic
Activity [11]: Non-toxic
Activity (A-375): Dose-dependent-effect
Activity (B16-F10 [13]): 4.75%
Activity (B16-F10 [14]): 3.65%
Activity (B16-F10 [15]): 4.69%
Activity (B16-F10 [16]): 2.63%
Activity (B16-F10 [17]): 1.04%
